The record followed here is ChEMBL document CHEMBL1153103, “Bioisosterism of urea-based GCPII inhibitors: Synthesis and structure-activity relationship studies” (Bioorg Med Chem Lett, 2010).

The target in experiment [1] is T1, Glutamate carboxypeptidase 2 (Homo sapiens, UniProt Q04609). The experiment is described as follows: Inhibition of human cloned glutamate carboxypeptidase 2.
Experiment [2] addresses T1, Glutamate carboxypeptidase 2. The experiment is described as follows: Inhibition of glutamate carboxypeptidase 2 in human LNCaP cells by fluorescence based NAALADase assay. Type of experiment: cell-based.

T1 sequence (Q04609 whole entry): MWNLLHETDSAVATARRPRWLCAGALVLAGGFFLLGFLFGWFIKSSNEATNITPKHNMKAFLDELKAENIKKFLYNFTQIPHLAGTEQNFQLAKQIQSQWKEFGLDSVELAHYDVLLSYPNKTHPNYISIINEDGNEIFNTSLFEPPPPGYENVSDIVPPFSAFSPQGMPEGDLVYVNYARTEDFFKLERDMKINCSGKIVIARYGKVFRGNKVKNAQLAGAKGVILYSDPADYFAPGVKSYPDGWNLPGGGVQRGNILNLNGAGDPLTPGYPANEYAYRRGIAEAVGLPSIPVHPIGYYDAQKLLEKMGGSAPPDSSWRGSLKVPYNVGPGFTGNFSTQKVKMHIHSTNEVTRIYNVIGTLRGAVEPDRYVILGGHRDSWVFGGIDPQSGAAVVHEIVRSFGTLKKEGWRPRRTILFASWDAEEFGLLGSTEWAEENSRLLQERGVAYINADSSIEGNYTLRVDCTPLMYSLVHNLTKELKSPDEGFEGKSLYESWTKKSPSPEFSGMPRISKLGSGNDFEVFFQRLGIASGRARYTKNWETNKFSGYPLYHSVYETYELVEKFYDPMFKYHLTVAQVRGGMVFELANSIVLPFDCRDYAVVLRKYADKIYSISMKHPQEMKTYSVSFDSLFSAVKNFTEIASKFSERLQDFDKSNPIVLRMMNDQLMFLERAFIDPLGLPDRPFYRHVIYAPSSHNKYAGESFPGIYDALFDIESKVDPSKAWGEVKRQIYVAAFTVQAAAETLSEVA

The compound `CC(=O)SCCC[C@H](NC(=O)N[C@@H](CCCCNC(=O)c1ccc(I)cc1)C(=O)O)C(=O)O` had a Ki in experiment [1] of 0.0241 µM.

Consider `CSCCC[C@H](NC(=O)N[C@@H](CC(C)C)C(=O)O)C(=O)O`, for which the Ki in experiment [2] came out at 3.5 µM.

Compound `O=C(N[C@@H](CCCCNC(=O)c1ccc(I)cc1)C(=O)O)N[C@@H](Cc1cscn1)C(=O)O` had a Ki in experiment [1] of 0.0161 µM.

Compound `O=C(O)CNC(=O)N[C@@H](CCCCNC(=O)c1ccc(I)cc1)C(=O)O` gave a Ki in experiment [1] of 1.32 µM.

With `CCC[C@H](NC(=O)N[C@@H](CCCCNC(=O)c1ccc(I)cc1)C(=O)O)C(=O)O`, the Ki in experiment [1] stood at 0.0523 µM.

For the compound `COC(=O)[C@H](CC(C)C)NC(=O)NC(C(=O)O)c1ccc(O)c(F)c1` (some centres undefined), the Ki in experiment [2] was found to be 3 µM.

`O=C(O)CCCNC(=O)N[C@@H](CCCCNC(=O)c1ccc(I)cc1)C(=O)O` gave a Ki in experiment [1] of 3.43 µM.

On to `CC(C)C[C@H](NC(=O)N[C@H](C(=O)O)c1ccc(O)cc1)C(=O)O`, for which, in experiment [2], the Ki was 0.775 µM.

As for `CC(C)C[C@H](NC(=O)NC(C(=O)O)c1ccc(O)c(I)c1)C(=O)OC(C)C` (some centres undefined), the affinity in experiment [2] corresponds to a Ki of 0.275 µM.

In turn, `COC(=O)[C@H](CC(C)C)NC(=O)N[C@@H](CCC(N)=O)C(=O)O` returned a Ki in experiment [2] of 7.5 µM.

`COc1cc(C(NC(=O)N[C@@H](CC(C)C)C(=O)O)C(=O)O)ccc1O` (some centres undefined) showed a Ki in experiment [2] of 0.25 µM.

Consider `COC(=O)[C@H](CC(C)C)NC(=O)N[C@@H](Cc1cccc(O)c1)C(=O)O`, for which the inhibition constant (Ki) in experiment [2] was over 1000 µM.

In the case of `COC(=O)[C@H](CC(C)C)NC(=O)N[C@H](C(=O)O)c1cc(Br)c(O)c(Br)c1`, the Ki in experiment [2] was determined as 0.575 µM.

For the compound `COc1cc(C(NC(=O)N[C@@H](CCCCNC(=O)c2ccc(I)cc2)C(=O)O)C(=O)O)ccc1O` (some centres undefined), the affinity in experiment [1] corresponds to a Ki of 0.285 µM.

For the compound `O=C(N[C@@H](CCCCNC(=O)c1ccc(I)cc1)C(=O)O)N[C@@H](Cc1cccs1)C(=O)O`, the Ki in experiment [1] is 0.0162 µM.

Regarding `COC(=O)[C@H](CC(C)C)NC(=O)NC(C(=O)O)c1ccc(O)c(OC)c1` (some centres undefined), the affinity in experiment [2], expressed as Ki, was 0.153 µM.

Take `COC(=O)[C@H](CC(C)C)NC(=O)NC(C(=O)O)c1ccc(F)c(OC)c1` (some centres undefined): the inhibition constant Ki in experiment [2] was over 1000 µM.

As to `COc1cc(C(NC(=O)N[C@@H](CC(C)C)C(=O)OC(C)C)C(=O)O)ccc1O` (some centres undefined), the Ki in experiment [2] came to 0.081 µM.

As for `CC(C)C[C@H](NC(=O)NC(C(=O)O)c1cc(O)cc(O)c1)C(=O)O` (some centres undefined), in experiment [2], affinity was put at a Ki of 13 µM.

In the case of `O=C(N[C@@H](CCCCNC(=O)c1ccc(I)cc1)C(=O)O)N[C@H](Cc1ccco1)C(=O)O`, the Ki in experiment [1] was 0.794 µM.

`O=C(N[C@@H](CCCCNC(=O)c1ccc(I)cc1)C(=O)O)N[C@H](C(=O)O)c1ccc(O)cc1` came in with a Ki in experiment [1] of 0.0851 µM.

Compound `O=C(N[C@@H](CCCCNC(=O)c1ccc(I)cc1)C(=O)O)N[C@@H](Cc1ccncc1)C(=O)O` had a Ki in experiment [1] of 0.105 µM.

The compound `O=C(N[C@@H](CCCCNC(=O)c1ccc(I)cc1)C(=O)O)N[C@H](Cc1cccs1)C(=O)O` had a Ki in experiment [1] of 0.795 µM.

`COC(=O)[C@H](CC(C)C)NC(=O)N[C@H](C(=O)O)c1ccc(O)c(Br)c1` registered a Ki in experiment [2] of 0.4 µM.

In the case of `CC(C)C[C@H](NC(=O)N[C@@H](Cc1ccc(O)c(I)c1)C(=O)O)C(=O)O`, the Ki in experiment [2] came to 13 µM.

For `COC(=O)[C@H](CC(C)C)NC(=O)N[C@@H](Cc1cccc(C(=O)O)c1)C(=O)O`, the Ki in experiment [2] is over 1000 µM.

Turning to `COC(=O)[C@H](CC(C)C)NC(=O)N[C@H](C(=O)O)c1ccc(O)c(I)c1`, the Ki in experiment [2] was determined as 0.475 µM.

On to `NC(=O)C[C@H](NC(=O)N[C@@H](CCCCNC(=O)c1ccc(I)cc1)C(=O)O)C(=O)O`, for which the Ki in experiment [1] was determined as 0.32 µM.

For `CC(C)C[C@H](NC(=O)N[C@@H](Cc1ccc(O)cc1)C(=O)O)C(=O)O`, affinity in experiment [2] was put at a Ki of 0.7 µM.

As for `COC(=O)[C@H](CC(C)C)NC(=O)NC(C(=O)O)c1cccc(O)c1` (some centres undefined), the Ki in experiment [2] is over 1000 µM.

The compound `O=C(N[C@@H](CCCCNC(=O)c1ccc(I)cc1)C(=O)O)N[C@@H](CC1CO1)C(=O)O` (some centres undefined) registered a Ki in experiment [1] of 0.254 µM.

For the compound `CC(C)C[C@H](NC(=O)NC(C(=O)O)c1cccc(O)c1)C(=O)O` (some centres undefined), the inhibition constant Ki in experiment [2] is over 1000 µM.

`N#CC[C@H](NC(=O)N[C@@H](CCCCNC(=O)c1ccc(I)cc1)C(=O)O)C(=O)O` returned a Ki in experiment [1] of 0.132 µM.

In turn, `C#CC[C@H](NC(=O)N[C@@H](CCCCNC(=O)c1ccc(I)cc1)C(=O)O)C(=O)O` yielded a Ki in experiment [1] of 0.0053 µM.

`O=C(N[C@@H](CCCCNC(=O)c1ccc(I)cc1)C(=O)O)N[C@@H](Cc1ccco1)C(=O)O` had a Ki in experiment [1] of 0.0053 µM.

In turn, `O=C(N[C@@H](CCCCNC(=O)c1ccc(I)cc1)C(=O)O)N[C@@H](Cc1cccnc1)C(=O)O` displayed a Ki in experiment [1] of 0.0972 µM.

For the compound `CC(C)C[C@H](NC(=O)N[C@@H](Cc1cccc(C(=O)O)c1)C(=O)O)C(=O)O`, the affinity in experiment [2] corresponds to a Ki of 3 µM.

`COC(=O)[C@H](CC(C)C)NC(=O)N[C@@H](CCCSC)C(=O)O` yielded a Ki in experiment [2] of over 1000 µM.

`O=C(N[C@@H](CCCCNC(=O)c1ccc(I)cc1)C(=O)O)NC1(C(=O)O)CC1` had a Ki in experiment [1] of 0.318 µM.
